# Laboratory results published in US20120029187A1, “HALOALKYLSULFONANILIDE DERIVATIVE” (Nissan Chemical Industries, Ltd., priority 2009, published 2012).
# Columns and labels:
# Format in all cases: in vivo
# barnyardgrass [1] = experiment: Test Example 1: herbicidal effects in preemergence treatment under submerged conditions; details: dose 2.52 g/a
# Procedure, shortened: (§1)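 Alluvial soil was flooded to 4 cm, sown with barnyardgrass, bulrush and ducksalad, and planted with 2.5-leaf rice seedlings. On the seeding day, water-diluted emulsifiable concentrates were applied to the water surface at set doses (g/a). After three weeks in a 25 to 30° C. greenhouse, mortality was scored 0–5.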
# bulrush [2] = experiment: as above; details: dose 2.52 g/a
# Procedure, shortened: as §1
# ducksalad [3] = experiment: as above; details: dose 2.52 g/a
# Procedure, shortened: as §1
# transplanted rice = experiment: Test Example 1: preemergence treatment under submerged conditions, effect on crop; details: dose 2.52 g/a
# Procedure, shortened: as §1
# barnyardgrass [4] = experiment: Test Example 2: herbicidal effects during the vegetation period under submerged conditions; details: treatment during the vegetation period under submerged conditions; dose 2.52 g/a
# Procedure, shortened: (§2)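 Barnyardgrass, bulrush and ducksalad were co-sown in alluvial soil flooded to 4 cm and grown in a greenhouse at 25 to 30° C. At the 1- or 2-leaf stage, water-diluted emulsifiable concentrates went onto the water surface at set doses (g/a). Herbicidal effect was scored three weeks later on a graded scale.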
# bulrush [5] = experiment: as above; details: treatment during the vegetation period under submerged conditions; dose 2.52 g/a
# Procedure, shortened: as §2
# ducksalad [6] = experiment: as above; details: treatment during the vegetation period under submerged conditions; dose 2.52 g/a
# Procedure, shortened: as §2
# Italian ryegrass [7] = experiment: Test Example 3: herbicidal effects in soil treatment
# Procedure, shortened: (§3)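 Seeds were sown in sterilized diluvial soil and covered with about 1.5 cm of soil. Compounds, formulated as emulsifiable concentrates and diluted with water, were sprayed evenly over the soil surface at set doses in g/a. Herbicidal effect was scored on a rating scale three weeks later.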
# barnyardgrass [8] = experiment: as above
# Procedure, shortened: as §3
# beadstraw [9] = experiment: as above
# Procedure, shortened: as §3
# common chickweed [10] = experiment: as above
# Procedure, shortened: as §3
# common lambsquater [11] = experiment: as above
# Procedure, shortened: as §3
# giant foxtail [12] = experiment: as above
# Procedure, shortened: as §3
# large crabgrass [13] = experiment: as above
# Procedure, shortened: as §3
# redroot pigweed [14] = experiment: as above
# Procedure, shortened: as §3
# water foxtail [15] = experiment: as above
# Procedure, shortened: as §3
# wild oat [16] = experiment: as above
# Procedure, shortened: as §3
# Italian ryegrass [17] = experiment: Test Example 4: herbicidal effect in foliage treatment; details: three weeks after application
# Procedure, shortened: (§4)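 Seeds sown in sterilized diluvial soil under ~1.5 cm soil cover and grown 14 days in a greenhouse at 25 to 30° C. Emulsifiable concentrates diluted with water were then sprayed uniformly on foliage at predetermined doses (g/a). Herbicidal effect was scored three weeks after application on a graded evaluation scale.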
# barnyardgrass [18] = experiment: as above; details: three weeks after application
# Procedure, shortened: as §4
# beadstraw [19] = experiment: as above; details: three weeks after application
# Procedure, shortened: as §4
# common chickweed [20] = experiment: as above; details: three weeks after application
# Procedure, shortened: as §4
# common lambsquater [21] = experiment: as above; details: three weeks after application
# Procedure, shortened: as §4
# common ragweed [22] = experiment: as above; details: three weeks after application
# Procedure, shortened: as §4
# giant foxtail [23] = experiment: as above; details: three weeks after application
# Procedure, shortened: as §4
# large crabgrass [24] = experiment: as above; details: three weeks after application
# Procedure, shortened: as §4
# water foxtail [25] = experiment: as above; details: three weeks after application
# Procedure, shortened: as §4
# wild oat [26] = experiment: as above; details: dose 6.3 g/a, three weeks after application
# Procedure, shortened: as §4
# common ragweed [27] = experiment: Test Example 3: herbicidal effects in soil treatment; details: dose 3.2 g/a
# Procedure, shortened: as §3
# posumbu knotweed [28] = experiment: as above; details: dose 3.2 g/a
# Procedure, shortened: as §3
# velvetleaf [29] = experiment: as above; details: dose 3.2 g/a
# Procedure, shortened: as §3
# posumbu knotweed [30] = experiment: Test Example 4: herbicidal effect in foliage treatment; details: dose 3.2 g/a, three weeks after application
# Procedure, shortened: as §4
# redroot pigweed [31] = experiment: as above; details: dose 3.2 g/a, three weeks after application
# Procedure, shortened: as §4
# velvetleaf [32] = experiment: as above; details: dose 3.2 g/a, three weeks after application
# Procedure, shortened: as §4
structure (smiles),measurement,setting,value
"CCC(=O)N(c1ccccc1CN1COC(C)(C)CC1=O)S(=O)(=O)C(F)(F)F [II-19, 6,6-dimethyl-3-[2-(N-ethylcarbonyl-N-trifluoromethanesulfonyl)aminobenzyl]-1,3-oxazinan-4-one]","A: barnyardgrass, herbicidal effect (evaluation scale 0-5)",barnyardgrass [1],5 (mortality of 90% or above (nearly complete death))
same,"B: bulrush, herbicidal effect (evaluation scale 0-5)",bulrush [2],5 (mortality of 90% or above (nearly complete death))
same,"C: ducksalad, herbicidal effect (evaluation scale 0-5)",ducksalad [3],5 (mortality of 90% or above (nearly complete death))
same,"a: transplanted rice, effect on crop (evaluation scale 0-5)",transplanted rice,0 (mortality of less than 5% (almost ineffective))
same,"A: barnyardgrass, herbicidal effect (evaluation scale 0-5)",barnyardgrass [4],5 (mortality of 90% or above (nearly complete death))
same,"B: bulrush, herbicidal effect (evaluation scale 0-5)",bulrush [5],5 (mortality of 90% or above (nearly complete death))
same,"C: ducksalad, herbicidal effect (evaluation scale 0-5)",ducksalad [6],5 (mortality of 90% or above (nearly complete death))
same,"H: Italian ryegrass, herbicidal effect (evaluation scale 0-5)",Italian ryegrass [7]; dose 6.3 g/a,5 (mortality of 90% or above (nearly complete death))
same,"A: barnyardgrass, herbicidal effect (evaluation scale 0-5)",barnyardgrass [8]; dose 6.3 g/a,5 (mortality of 90% or above (nearly complete death))
same,"O: beadstraw, herbicidal effect (evaluation scale 0-5)",beadstraw [9]; dose 6.3 g/a,4 (mortality of at least 70% and less than 90%)
same,"N: common chickweed, herbicidal effect (evaluation scale 0-5)",common chickweed [10]; dose 6.3 g/a,4 (mortality of at least 70% and less than 90%)
same,"L: common lambsquater, herbicidal effect (evaluation scale 0-5)",common lambsquater [11]; dose 6.3 g/a,0 (mortality of less than 5% (almost ineffective))
same,"E: giant foxtail, herbicidal effect (evaluation scale 0-5)",giant foxtail [12]; dose 6.3 g/a,2 (mortality of at least 20% and less than 40%)
same,"D: large crabgrass, herbicidal effect (evaluation scale 0-5)",large crabgrass [13]; dose 6.3 g/a,5 (mortality of 90% or above (nearly complete death))
same,"K: redroot pigweed, herbicidal effect (evaluation scale 0-5)",redroot pigweed [14]; dose 6.3 g/a,2 (mortality of at least 20% and less than 40%)
same,"G: water foxtail, herbicidal effect (evaluation scale 0-5)",water foxtail [15]; dose 6.3 g/a,5 (mortality of 90% or above (nearly complete death))
same,"F: wild oat, herbicidal effect (evaluation scale 0-5)",wild oat [16]; dose 6.3 g/a,0 (mortality of less than 5% (almost ineffective))
same,"H: Italian ryegrass, herbicidal effect",Italian ryegrass [17]; dose 6.3 g/a,4 (mortality of at least 70% and less than 90%)
same,"A: barnyardgrass, herbicidal effect",barnyardgrass [18]; dose 6.3 g/a,5 (mortality of 90% or above (nearly complete death))
same,"O: beadstraw, herbicidal effect",beadstraw [19]; dose 6.3 g/a,5 (mortality of 90% or above (nearly complete death))
same,"N: common chickweed, herbicidal effect",common chickweed [20]; dose 6.3 g/a,4 (mortality of at least 70% and less than 90%)
same,"L: common lambsquater, herbicidal effect",common lambsquater [21]; dose 6.3 g/a,0 (mortality of less than 5% (almost ineffective))
same,"J: common ragweed, herbicidal effect",common ragweed [22]; dose 6.3 g/a,5 (mortality of 90% or above (nearly complete death))
same,"E: giant foxtail, herbicidal effect",giant foxtail [23]; dose 6.3 g/a,4 (mortality of at least 70% and less than 90%)
same,"D: large crabgrass, herbicidal effect",large crabgrass [24]; dose 6.3 g/a,4 (mortality of at least 70% and less than 90%)
same,"G: water foxtail, herbicidal effect",water foxtail [25]; dose 6.3 g/a,5 (mortality of 90% or above (nearly complete death))
same,"F: wild oat, herbicidal effect",wild oat [26],0 (mortality of less than 5% (almost ineffective))
CCC(=O)N(c1ccccc1CN1COC2(CCCC2)CC1=O)S(=O)(=O)C(F)(F)F [II-65],"A: barnyardgrass, herbicidal effect (evaluation scale 0-5)",barnyardgrass [1],5 (mortality of 90% or above (nearly complete death))
same,"B: bulrush, herbicidal effect (evaluation scale 0-5)",bulrush [2],5 (mortality of 90% or above (nearly complete death))
same,"C: ducksalad, herbicidal effect (evaluation scale 0-5)",ducksalad [3],5 (mortality of 90% or above (nearly complete death))
same,"a: transplanted rice, effect on crop (evaluation scale 0-5)",transplanted rice,0 (mortality of less than 5% (almost ineffective))
same,"A: barnyardgrass, herbicidal effect (evaluation scale 0-5)",barnyardgrass [4],5 (mortality of 90% or above (nearly complete death))
same,"B: bulrush, herbicidal effect (evaluation scale 0-5)",bulrush [5],5 (mortality of 90% or above (nearly complete death))
same,"C: ducksalad, herbicidal effect (evaluation scale 0-5)",ducksalad [6],5 (mortality of 90% or above (nearly complete death))
same,"H: Italian ryegrass, herbicidal effect (evaluation scale 0-5)",Italian ryegrass [7]; dose 3.2 g/a,5 (mortality of 90% or above (nearly complete death))
same,"A: barnyardgrass, herbicidal effect (evaluation scale 0-5)",barnyardgrass [8]; dose 3.2 g/a,5 (mortality of 90% or above (nearly complete death))
same,"O: beadstraw, herbicidal effect (evaluation scale 0-5)",beadstraw [9]; dose 3.2 g/a,0 (mortality of less than 5% (almost ineffective))
same,"N: common chickweed, herbicidal effect (evaluation scale 0-5)",common chickweed [10]; dose 3.2 g/a,5 (mortality of 90% or above (nearly complete death))
same,"L: common lambsquater, herbicidal effect (evaluation scale 0-5)",common lambsquater [11]; dose 3.2 g/a,0 (mortality of less than 5% (almost ineffective))
same,"J: common ragweed, herbicidal effect (evaluation scale 0-5)",common ragweed [27],4 (mortality of at least 70% and less than 90%)
same,"E: giant foxtail, herbicidal effect (evaluation scale 0-5)",giant foxtail [12]; dose 3.2 g/a,5 (mortality of 90% or above (nearly complete death))
same,"D: large crabgrass, herbicidal effect (evaluation scale 0-5)",large crabgrass [13]; dose 3.2 g/a,5 (mortality of 90% or above (nearly complete death))
same,"M: posumbu knotweed, herbicidal effect (evaluation scale 0-5)",posumbu knotweed [28],4 (mortality of at least 70% and less than 90%)
same,"K: redroot pigweed, herbicidal effect (evaluation scale 0-5)",redroot pigweed [14]; dose 3.2 g/a,2 (mortality of at least 20% and less than 40%)
same,"I: velvetleaf, herbicidal effect (evaluation scale 0-5)",velvetleaf [29],3 (mortality of at least 40% and less than 70%)
same,"G: water foxtail, herbicidal effect (evaluation scale 0-5)",water foxtail [15]; dose 3.2 g/a,5 (mortality of 90% or above (nearly complete death))
same,"F: wild oat, herbicidal effect (evaluation scale 0-5)",wild oat [16]; dose 3.2 g/a,0 (mortality of less than 5% (almost ineffective))
same,"H: Italian ryegrass, herbicidal effect",Italian ryegrass [17]; dose 3.2 g/a,3 (mortality of at least 40% and less than 70%)
same,"A: barnyardgrass, herbicidal effect",barnyardgrass [18]; dose 3.2 g/a,3 (mortality of at least 40% and less than 70%)
same,"O: beadstraw, herbicidal effect",beadstraw [19]; dose 3.2 g/a,0 (mortality of less than 5% (almost ineffective))
same,"N: common chickweed, herbicidal effect",common chickweed [20]; dose 3.2 g/a,5 (mortality of 90% or above (nearly complete death))
same,"L: common lambsquater, herbicidal effect",common lambsquater [21]; dose 3.2 g/a,2 (mortality of at least 20% and less than 40%)
same,"J: common ragweed, herbicidal effect",common ragweed [22]; dose 3.2 g/a,3 (mortality of at least 40% and less than 70%)
same,"E: giant foxtail, herbicidal effect",giant foxtail [23]; dose 3.2 g/a,4 (mortality of at least 70% and less than 90%)
same,"D: large crabgrass, herbicidal effect",large crabgrass [24]; dose 3.2 g/a,3 (mortality of at least 40% and less than 70%)
same,"M: posumbu knotweed, herbicidal effect",posumbu knotweed [30],3 (mortality of at least 40% and less than 70%)
same,"K: redroot pigweed, herbicidal effect",redroot pigweed [31],0 (mortality of less than 5% (almost ineffective))
same,"I: velvetleaf, herbicidal effect",velvetleaf [32],3 (mortality of at least 40% and less than 70%)
same,"G: water foxtail, herbicidal effect",water foxtail [25]; dose 3.2 g/a,5 (mortality of 90% or above (nearly complete death))
